Where a SMILES comes first, the peptide text is derived from it. Bridges are numbered along the chain shown (N, C = ends).
How the values were obtained:
[1] = system: BD1 domains (BRD2-BD1, BRD3-BD1, BRD4-BD1); experiment: SPR binding, stated for the BD1 domains together; parameters: species or system human; conditions: for reduction of affinity relative to 3.1B: all three BD1 domains
Procedure: (§1) We next assessed the ability of each of the three lead peptides to bind BRD3-BD1. […] To assess selectivity for other BET BDs, we used SPR to determine the binding affinity of each peptide toward the remaining BDs from BRD2, BRD3, and BRD4 (Fig. 1B). […]
(§2) Peptides were synthesised as C-terminal amides using standard fluorenylmethyloxycarbonyl (Fmoc)-strategy solid-phase chemistry using a Syro I automated synthesiser (Biotage) and NovaPEG Rink Amide resin (Novabiochem). Couplings were performed with HBTU/HOBt (1:1) and 6 equivalents of each amino acid. Double couplings were performed for arginine residues.
(§3) Following the final amino acid coupling reaction, the Fmoc group was removed and resin incubated with N-(chloroacetoxy)succinimide (0.2 M in DMF, 1 h, RT). Resin was washed with DMF (5 times) and DCM (5 times) and dried in vacuo.
(§4) Linear peptides were cleaved from the resin by incubation (3 h, RT) with a trifluoroacetic acid (TFA) cleavage cocktail (TFA/2,2’-(ethylenedioxy)diethanethiol/triisopropyl silane/H2O (92.5:2.5:2.5:2.5)) before filtration, concentration in vacuo and precipitation with ice-cold diethyl ether. Crude peptides were washed with diethyl ether (5 times), dried and resuspended in DMSO. The pH was raised to >8 using triethylamine to allow cyclisation. Following incubation (1 h, RT), peptides were re-acidified with TFA for purification.
(§5) Crude peptides were purified by reverse-phase high-performance liquid chromatography using a Chromolith Prep column (Merck) on a Prominence LC-20AP system (Shimadzu) (Solvent A: 0.1% TFA in H2O, Solvent B: 0.1% TFA in acetonitrile) to >95% purity as determined by mass spectrometry (Fig. S17). Purified peptides were reconstituted in DMSO and concentrations determined from their absorbance at 280 nm in 5% DMSO using predicted extinction coefficients.
(§6) Surface plasmon resonance (SPR)
(§7) Measurements were conducted on a T200 or S200 (GE Healthcare) and data analysed using the Biacore Insight Evaluation Software. Experiments were performed at 4 °C in single cycle kinetics mode. Biotinylated BET bromodomains were immobilised on a CAP chip (GE Healthcare) with a […]
(§8) pH 7.5 was used as the running buffer. […]

BRD3-BD1 = target: T1, BRD3-BD1 (Homo sapiens, UniProt Q15059); experiment: SPR binding of peptides to immobilised biotinylated BET bromodomain; conditions: for Kd: gray boxed value: no reproducible signals observed at the concentrations used
T1 construct: BRD3 (BD1: 25-147); Avi tag (biotinylated); made in house; host or cells: E. coli BL21(DE3)
Source text: as §1, §5, §6, §7, §8

BRD4-BD2 = target: T2, BRD4-BD2 (Homo sapiens, UniProt O60885); experiment: as above
T2 construct: BRD4 (BD1: 42-168; BD2: 348-464); Avi tag (biotinylated); made in house; host or cells: E. coli BL21(DE3)
Procedure: as §1, §2, §3, §4, §5, §6, §7, §8

[2] = system: BD2 domains (BRD2-BD2, BRD3-BD2, BRD4-BD2); experiment: SPR binding, stated for the BD2 domains together; parameters: species or system human
Procedure: Measurements were conducted on a T200 or S200 (GE Healthcare) and data analysed using the Biacore Insight Evaluation Software. Experiments were performed at 4 C in single cycle kinetics mode. Biotinylated BET bromodomains were immobilised on a CAP chip (GE Healthcare) with a
pH 7.5 was used as the running buffer. Between cycles the chip was regenerated following the

BRD2-BD1 = target: T3, BRD2-BD1 (Homo sapiens, UniProt P25440); experiment: SPR binding of peptides to immobilised biotinylated BET bromodomain
T3 construct: human BRD2 (BD1: 65-194; BD2: 347-455); Avi tag (biotinylated); made in house; host or cells: E. coli BL21(DE3)
Procedure: as §1, §2, §3, §4, §5, §6, §7, §8

BRD2-BD2 = target: T4, BRD2-BD2 (Homo sapiens, UniProt P25440); experiment: as above
T4 construct: human BRD2 (BD1: 65-194; BD2: 347-455); Avi tag (biotinylated); made in house; host or cells: E. coli BL21(DE3)
Source text: as §1, §5, §6, §7, §8

BRD3-BD2 = target: T5, BRD3-BD2 (Homo sapiens, UniProt Q15059); experiment: as above
T5 construct: Avi tag (biotinylated); made in house; host or cells: E. coli BL21(DE3)
Procedure: as §1, §2, §3, §4, §5, §6, §7, §8

BRD4-BD1 = target: T6, BRD4-BD1 (Homo sapiens, UniProt O60885); experiment: as above
T6 construct: BRD4 (BD1: 42-168; BD2: 348-464); Avi tag (biotinylated); made in house; host or cells: E. coli Rosetta2(DE3)
Procedure: as §1, §2, §3, §4, §5, §6, §7, §8

[3] = 4 C, geometric mean and SD of two to five measurements
[4] = gray boxed value: no reproducible signals observed at the concentrations used

T3 sequence (P25440 65-194): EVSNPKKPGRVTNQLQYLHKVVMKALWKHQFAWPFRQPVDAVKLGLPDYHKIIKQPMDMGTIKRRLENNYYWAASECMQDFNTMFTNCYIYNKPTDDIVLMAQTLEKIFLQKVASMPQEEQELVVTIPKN
T5 sequence (Q15059 307-419): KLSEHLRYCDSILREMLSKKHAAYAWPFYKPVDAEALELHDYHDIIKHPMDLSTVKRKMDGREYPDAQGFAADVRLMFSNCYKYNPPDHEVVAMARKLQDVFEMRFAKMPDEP
T1 sequence (Q15059 25-147): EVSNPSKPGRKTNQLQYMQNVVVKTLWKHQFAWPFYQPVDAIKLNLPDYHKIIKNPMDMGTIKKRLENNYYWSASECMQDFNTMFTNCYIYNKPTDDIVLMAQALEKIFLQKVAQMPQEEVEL
T4 sequence (P25440 347-455): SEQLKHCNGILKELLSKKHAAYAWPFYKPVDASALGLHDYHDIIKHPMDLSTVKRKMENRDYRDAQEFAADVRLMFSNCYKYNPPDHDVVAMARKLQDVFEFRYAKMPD

With `CC[C@H](C)[C@@H]1NC(=O)[C@H]([C@@H](C)O)NC(=O)[C@H](CCCCN)NC(=O)[C@H](Cc2c[nH]c3ccccc23)NC(=O)CSC[C@@H](C(N)=O)NC(=O)[C@H](CCC(N)=O)NC(=O)[C@H](CCCCNC(C)=O)NC(=O)[C@H]([C@@H](C)O)NC(=O)[C@H](CCCNC(=N)N)NC(=O)[C@H](Cc2c[nH]c3ccccc23)NC(=O)[C@H]([C@@H](C)O)NC(=O)[C@H](C)NC(=O)CNC(=O)[C@H](CCCCNC(C)=O)NC1=O` [AcK7→Ala] ({CH2CO}-WKTIK(Ac)GATWRTK(Ac)QC-NH2; thioether N-14) the “reduction of affinity relative to 3.1B” value [1] was “fourfold”.

In the case of `CC[C@H](C)[C@@H]1NC(=O)[C@H]([C@@H](C)O)NC(=O)[C@H](CCCCN)NC(=O)[C@H](Cc2c[nH]c3ccccc23)NC(=O)CSC[C@@H](C(N)=O)NC(=O)[C@H](CCC(N)=O)NC(=O)[C@H](CCCCNC(C)=O)NC(=O)[C@H]([C@@H](C)O)NC(=O)[C@H](CCCNC(=N)N)NC(=O)[C@H](Cc2c[nH]c3ccccc23)NC(=O)[C@H]([C@@H](C)O)NC(=O)[C@H](CCCCNC(C)=O)NC(=O)CNC(=O)[C@H](C)NC1=O` [AcK5→Ala] ({CH2CO}-WKTIAGK(Ac)TWRTK(Ac)QC-NH2; thioether N-14), the “reduction of affinity relative to 3.1B” value [1] is reported as ~80 fold.

`CC(=O)NCCCC[C@@H]1NC(=O)[C@H](Cc2c[nH]c3ccccc23)NC(=O)CSC[C@@H](C(=O)N[C@@H](Cc2c[nH]c3ccccc23)C(=O)N[C@@H](CC(C)C)C(=O)N[C@@H](CCCCNC(C)=O)C(=O)N[C@@H](CCCNC(=N)N)C(=O)N[C@@H](CCCCNC(C)=O)C(=O)N[C@@H](CC(C)C)C(=O)N[C@@H](CC(C)C)C(=O)N[C@@H](CC(C)C)C(=O)N[C@@H](CCCNC(=N)N)C(=O)N[C@@H](CS)C(N)=O)NC(=O)[C@H](Cc2c[nH]c3ccccc23)NC(=O)[C@H](CC(N)=O)NC1=O` [4.2A] ({CH2CO}-WK(Ac)NWCWLK(Ac)RK(Ac)LLLRC-NH2; thioether N-5 (inferred)) was tested, and the “binding to BRD3-BD1, fold tighter than to BRD4-BD2” value (BRD3-BD1) was 10 fold and the “binding to BRD4-BD2, fold tighter than to other BD2 domains” value (BRD4-BD2) was 4- to 8 fold.

`CC[C@H](C)[C@@H]1NC(=O)[C@H](CCCCN)NC(=O)[C@H](CC(C)C)NC(=O)CNC(=O)[C@H](Cc2ccc(O)cc2)NC(=O)[C@H](CCCCNC(C)=O)NC(=O)[C@H](CCCCN)NC(=O)[C@H](Cc2c[nH]c3ccccc23)NC(=O)[C@H](CCC(N)=O)NC(=O)[C@H](CCCCNC(C)=O)NC(=O)[C@H](Cc2c[nH]c3ccccc23)NC(=O)CSC[C@@H](C(N)=O)NC1=O` [3.2C] ({CH2CO}-WK(Ac)QWKK(Ac)YGLKIC-NH2; thioether N-12) was tested, and the “selectivity between BD2 and BD1 domains” value [2] was 10- to 100 fold, the Kd ([2]; read-out: affinities for the BD2 domains) was 0.01 to 0.1 µM and the “binding to BD1 domains (in words)” value [1] was “did not bind strongly”.

`CC[C@H](C)[C@@H]1NC(=O)[C@H](Cc2c[nH]c3ccccc23)NC(=O)[C@H]([C@@H](C)CC)NC(=O)[C@H](CCCNC(=N)N)NC(=O)[C@H]([C@@H](C)O)NC(=O)[C@H](CC(C)C)NC(=O)[C@H](CCCCNC(C)=O)NC(=O)[C@H]([C@@H](C)O)NC(=O)[C@H](Cc2c[nH]c3ccccc23)NC(=O)[C@H](CCCNC(=N)N)NC(=O)[C@H](CC(C)C)NC(=O)[C@H](Cc2ccc(O)cc2)NC(=O)[C@H]([C@@H](C)O)NC(=O)[C@H](Cc2c[nH]c3ccccc23)NC(=O)CSC[C@@H](C(N)=O)NC(=O)[C@H](CO)NC1=O` [3.1A] ({CH2CO}-WTYLRWTK(Ac)LTRIWISC-NH2; thioether N-16) was tested, and the “interaction with BRD2-BD1 (in words)” value (BRD2-BD1) was “no observable interaction”.

For `CC[C@H](C)[C@@H]1NC(=O)[C@H](CO)NC(=O)[C@@H]2CCCN2C(=O)[C@H](CCCCNC(C)=O)NC(=O)[C@H](CCCNC(=N)N)NC(=O)[C@H](Cc2c[nH]c3ccccc23)NC(=O)[C@H](CCCCNC(C)=O)NC(=O)[C@H](CC(C)C)NC(=O)[C@H](CCCNC(=N)N)NC(=O)[C@H]([C@@H](C)CC)NC(=O)[C@H]([C@@H](C)O)NC(=O)[C@H](Cc2c[nH]cn2)NC(=O)[C@H](Cc2ccc(O)cc2)NC(=O)[C@H](C)NC(=O)[C@H](Cc2c[nH]c3ccccc23)NC(=O)CSC[C@@H](C(N)=O)NC(=O)[C@H](CO)NC1=O` [4.2B] ({CH2CO}-WAYHTIRLK(Ac)WRK(Ac)PSISC-NH2; thioether N-17), the Kd (BRD3-BD1) was > 10 µM, the Kd (BRD2-BD2; [3]) was 0.0027 ± 0.006 µM and the “selectivity for BD2 domains over BD1 domains (in words)” value [2] was “significant selectivity”. The Kd (BRD2-BD1; [3]) was 0.022 ± 2.8e-05 µM, the Kd (BRD3-BD2; [3]) was 0.016 ± 0.011 µM and the Kd (BRD4-BD1; [4]) was > 10 µM. It also gave a Kd (BRD4-BD2; [3]) of 0.0011 ± 4e-05 µM.

`CC[C@H](C)[C@@H]1NC(=O)[C@H](C)NC(=O)[C@H](CCCCN)NC(=O)[C@H](CCCCNC(C)=O)NC(=O)[C@H](Cc2c[nH]c3ccccc23)NC(=O)CSC[C@@H](C(N)=O)NC(=O)[C@H]([C@@H](C)CC)NC(=O)[C@H](Cc2c[nH]cn2)NC(=O)[C@H](CC(C)C)NC(=O)[C@H]([C@@H](C)O)NC(=O)[C@H](CCCCN)NC(=O)[C@H](CC(C)C)NC(=O)[C@H]([C@@H](C)CC)NC(=O)[C@H](CCCCNC(C)=O)NC(=O)CNC(=O)[C@@H]2CCCN2C(=O)[C@H](CC(C)C)NC1=O` [3.2A] ({CH2CO}-WK(Ac)KAILPGK(Ac)ILKTLHIC-NH2; thioether N-17) was tested, and the Kd (BRD3-BD1) was > 10 µM, the Kd (BRD2-BD2; [4]) was > 10 µM and the Kd (BRD2-BD1; [4]) was > 10 µM. For the same molecule, the “binding to BRD3-BD2 (in words)” value (BRD3-BD2) was “strong binding was not observed”, the Kd (BRD3-BD2; [4]) was > 10 µM and the Kd (BRD4-BD1; [3]) was 0.0089 ± 0.02 µM. The Kd (BRD4-BD2; [4]) was > 10 µM.

Reference: PMC7604503, “Cyclic peptides can engage a single binding pocket through highly divergent modes” (Proceedings of the National Academy of Sciences of the …, 2020)
